Laboratory results as given in ChEMBL document CHEMBL1150077, “Phospholipase D inhibitors from a Myrsine species” (J Nat Prod, 1995).

Assays:
[1] = Inhibition of PMA-stimulated phospholipase D in human HL60 cells; assay type: cell-based; conditions: hl-60
[2] = Inhibition of fMLP-stimulated phospholipase D in human HL60 cells; assay type: cell-based; conditions: hl-60

Row | IC50 [1] | IC50 [2] | Structure (SMILES)
1 | 2 µM | 24 µM | C[C@H]1O[C@@H](O[C@H]2[C@H](O[C@H]3CO[C@@H](O[C@H]4CC[C@]5(C)[C@H]6CC[C@]78OC[C@@]9(CCC(C)(C)C[C@H]97)[C@H](O)C[C@@]8(C)[C@]6(C)CC[C@H]5C4(C)C)[C@H](O[C@@H]4O[C@H](CO)[C@@H](O)[C@H](O)[C@H]4O)[C@H]3O)O[C@H](CO)[C@@H](O)[C@@H]2O)[C@@H](O)[C@@H](O)[C@@H]1O
2 | 3 µM | 8 µM | CC1(C)CC[C@]23CO[C@@]4(CC[C@@H]5[C@@]6(C)CC[C@H](O[C@@H]7OC[C@H](O[C@@H]8O[C@H](CO)[C@@H](O)[C@H](O)[C@H]8O[C@@H]8OC[C@@H](O)[C@H](O)[C@H]8O)[C@H](O)[C@H]7O[C@@H]7O[C@H](CO)[C@@H](O)[C@H](O)[C@H]7O)C(C)(C)[C@@H]6CC[C@@]5(C)[C@]4(C)C[C@H]2O)[C@@H]3C1 [LYSIKOKIANOSIDE 1]
